PubChem BioAssay (NCI)
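Tested at 5 concentrations; 48 h exposure; 96-well plates; endpoints linearly interpolated, else capped at highest concentration. GI50: concentration for 50% inhibition of growth. TGI: total growth inhibition.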

Key:
Experiment in all cases: NCI-60 cell line screen, 48 h
786-0 renal = tested on: 786-0 renal
A498 renal = tested on: A498 renal
A549 NSCLC = tested on: A549 NSCLC
ACHN renal = tested on: ACHN renal
BT-549 breast = tested on: BT-549 breast
CAKI-1 renal = tested on: CAKI-1 renal
CCRF-CEM leukemia = tested on: CCRF-CEM leukemia
COLO 205 colon = tested on: COLO 205 colon
DU-145 prostate = tested on: DU-145 prostate
EKVX NSCLC = tested on: EKVX NSCLC
HCC-2998 colon = tested on: HCC-2998 colon
HCT-116 colon = tested on: HCT-116 colon
HCT-15 colon = tested on: HCT-15 colon
HL-60(TB) leukemia = tested on: HL-60(TB) leukemia
HOP-62 NSCLC = tested on: HOP-62 NSCLC
HOP-92 NSCLC = tested on: HOP-92 NSCLC
HS 578T breast = tested on: HS 578T breast
HT29 colon = tested on: HT29 colon
IGROV1 ovarian = tested on: IGROV1 ovarian
K-562 leukemia = tested on: K-562 leukemia
KM12 colon = tested on: KM12 colon
LOX IMVI melanoma = tested on: LOX IMVI melanoma
M14 melanoma = tested on: M14 melanoma
MCF7 breast = tested on: MCF7 breast
MDA-MB-231 breast = tested on: MDA-MB-231 breast
MDA-MB-435 = tested on: MDA-MB-435
MOLT-4 leukemia = tested on: MOLT-4 leukemia
NCI-H226 lung = tested on: NCI-H226 lung
NCI-H23 lung = tested on: NCI-H23 lung
NCI-H460 lung = tested on: NCI-H460 lung
NCI-H522 lung = tested on: NCI-H522 lung
NCI/ADR-RES ovarian = tested on: NCI/ADR-RES ovarian
OVCAR-3 ovarian = tested on: OVCAR-3 ovarian
OVCAR-4 ovarian = tested on: OVCAR-4 ovarian
OVCAR-5 ovarian = tested on: OVCAR-5 ovarian
OVCAR-8 ovarian = tested on: OVCAR-8 ovarian
PC-3 prostate = tested on: PC-3 prostate
RPMI-8226 leukemia = tested on: RPMI-8226 leukemia
RXF 393 renal = tested on: RXF 393 renal
SF-268 CNS = tested on: SF-268 CNS
SF-295 CNS = tested on: SF-295 CNS
SF-539 CNS = tested on: SF-539 CNS
SK-MEL-2 melanoma = tested on: SK-MEL-2 melanoma
SK-MEL-28 melanoma = tested on: SK-MEL-28 melanoma
SK-MEL-5 melanoma = tested on: SK-MEL-5 melanoma
SK-OV-3 ovarian = tested on: SK-OV-3 ovarian
SN12C renal = tested on: SN12C renal
SNB-19 CNS = tested on: SNB-19 CNS
SNB-75 CNS = tested on: SNB-75 CNS
SR leukemia = tested on: SR leukemia
SW-620 colon = tested on: SW-620 colon
T-47D breast = tested on: T-47D breast
TK-10 renal = tested on: TK-10 renal
U251 CNS = tested on: U251 CNS
UACC-257 melanoma = tested on: UACC-257 melanoma
UACC-62 melanoma = tested on: UACC-62 melanoma
UO-31 renal = tested on: UO-31 renal

Nc1ccc2c(c1)Cc1cc(Cl)c(Cl)cc1-2
GI50 (786-0 renal): > 100 µM | TGI (786-0 renal): > 100 µM | GI50 (A498 renal): 4.78 µM | TGI (A498 renal): > 100 µM | GI50 (A549 NSCLC): 7.72 µM | TGI (A549 NSCLC): > 100 µM | GI50 (ACHN renal): 7.06 µM | TGI (ACHN renal): > 100 µM | GI50 (BT-549 breast): > 100 µM | TGI (BT-549 breast): > 100 µM | GI50 (CAKI-1 renal): 3.76 µM | TGI (CAKI-1 renal): > 100 µM | GI50 (CCRF-CEM leukemia): 7.73 µM | TGI (CCRF-CEM leukemia): > 100 µM | GI50 (COLO 205 colon): 22.2 µM | TGI (COLO 205 colon): > 100 µM | GI50 (DU-145 prostate): 6.24 µM | TGI (DU-145 prostate): > 100 µM | GI50 (EKVX NSCLC): 1940 nM | TGI (EKVX NSCLC): 8.82 µM | GI50 (HCC-2998 colon): 9.19 µM | TGI (HCC-2998 colon): > 100 µM | GI50 (HCT-116 colon): 6.81 µM | TGI (HCT-116 colon): > 100 µM | GI50 (HCT-15 colon): 6.22 µM | TGI (HCT-15 colon): > 100 µM | GI50 (HL-60(TB) leukemia): 55 µM | TGI (HL-60(TB) leukemia): > 100 µM | GI50 (HOP-62 NSCLC): > 100 µM | TGI (HOP-62 NSCLC): > 100 µM | GI50 (HOP-92 NSCLC): 97.9 µM | TGI (HOP-92 NSCLC): > 100 µM | GI50 (HS 578T breast): 5.79 µM | TGI (HS 578T breast): > 100 µM | GI50 (HT29 colon): > 100 µM | TGI (HT29 colon): > 100 µM | GI50 (IGROV1 ovarian): 17.7 µM | TGI (IGROV1 ovarian): > 100 µM | GI50 (K-562 leukemia): > 100 µM | TGI (K-562 leukemia): > 100 µM | GI50 (KM12 colon): 7.05 µM | TGI (KM12 colon): > 100 µM | GI50 (LOX IMVI melanoma): 65.6 µM | TGI (LOX IMVI melanoma): > 100 µM | GI50 (M14 melanoma): 3.55 µM | TGI (M14 melanoma): > 100 µM | GI50 (MCF7 breast): 562 nM | TGI (MCF7 breast): > 100 µM | GI50 (MDA-MB-231 breast): 6.39 µM | TGI (MDA-MB-231 breast): > 100 µM | GI50 (MDA-MB-435): 1770 nM | TGI (MDA-MB-435): 4.51 µM | GI50 (MOLT-4 leukemia): > 100 µM | TGI (MOLT-4 leukemia): > 100 µM | GI50 (NCI-H226 lung): > 100 µM | TGI (NCI-H226 lung): > 100 µM | GI50 (NCI-H23 lung): > 100 µM | TGI (NCI-H23 lung): > 100 µM | GI50 (NCI-H460 lung): 5.12 µM | TGI (NCI-H460 lung): > 100 µM | GI50 (NCI-H522 lung): > 100 µM | TGI (NCI-H522 lung): > 100 µM | GI50 (NCI/ADR-RES ovarian): 62.2 µM | TGI (NCI/ADR-RES ovarian): > 100 µM | GI50 (OVCAR-3 ovarian): 3.17 µM | TGI (OVCAR-3 ovarian): 87.8 µM | GI50 (OVCAR-4 ovarian): > 100 µM | TGI (OVCAR-4 ovarian): > 100 µM | GI50 (OVCAR-5 ovarian): > 100 µM | TGI (OVCAR-5 ovarian): > 100 µM | GI50 (OVCAR-8 ovarian): > 100 µM | TGI (OVCAR-8 ovarian): > 100 µM | GI50 (PC-3 prostate): > 100 µM | TGI (PC-3 prostate): > 100 µM | GI50 (RPMI-8226 leukemia): 57.6 µM | TGI (RPMI-8226 leukemia): > 100 µM | GI50 (RXF 393 renal): 6.07 µM | TGI (RXF 393 renal): > 100 µM | GI50 (SF-268 CNS): > 100 µM | TGI (SF-268 CNS): > 100 µM | GI50 (SF-295 CNS): 2250 nM | TGI (SF-295 CNS): 7.15 µM | GI50 (SF-539 CNS): 57.3 µM | TGI (SF-539 CNS): > 100 µM | GI50 (SK-MEL-2 melanoma): > 100 µM | TGI (SK-MEL-2 melanoma): > 100 µM | GI50 (SK-MEL-28 melanoma): > 100 µM | TGI (SK-MEL-28 melanoma): > 100 µM | GI50 (SK-MEL-5 melanoma): 8.17 µM | TGI (SK-MEL-5 melanoma): > 100 µM | GI50 (SK-OV-3 ovarian): 8.03 µM | TGI (SK-OV-3 ovarian): > 100 µM | GI50 (SN12C renal): 11.9 µM | TGI (SN12C renal): > 100 µM | GI50 (SNB-19 CNS): 5.96 µM | TGI (SNB-19 CNS): > 100 µM | GI50 (SNB-75 CNS): 67.8 µM | TGI (SNB-75 CNS): > 100 µM | GI50 (SR leukemia): 26.9 µM | TGI (SR leukemia): > 100 µM | GI50 (SW-620 colon): 5.43 µM | TGI (SW-620 colon): > 100 µM | GI50 (T-47D breast): > 100 µM | TGI (T-47D breast): > 100 µM | GI50 (TK-10 renal): > 100 µM | TGI (TK-10 renal): > 100 µM | GI50 (U251 CNS): 5.56 µM | TGI (U251 CNS): > 100 µM | GI50 (UACC-257 melanoma): > 100 µM | TGI (UACC-257 melanoma): > 100 µM | GI50 (UACC-62 melanoma): 12.8 µM | TGI (UACC-62 melanoma): > 100 µM | GI50 (UO-31 renal): 6.01 µM | TGI (UO-31 renal): > 100 µM
